{
  "source": "patent US11672786B2",
  "about": "“Methods of treating diseases associated with repeat instability” (The Hospital for Sick Children, priority 2016, dated 2023)",
  "key": {"[1]": {"tested_on": "transcription across the CAG transgene, R6/2 striatum", "assay": "qRT-PCR of CAG transgene transcription in R6/2 striatum", "type": "in vivo, mouse", "details": "NA-treated vs. PBS-treated R6/2 striatum", "experimental": "Strand specific RT-PCR (1 weeks). AttB-PhiC31 system have been widely used for single copy integration. Panel B of FIG. 16 was determined by quantitative real-time reverse transcriptase (qRT)-PCR and normalized to U6 RNA, expressed as the ratio of NA-treated vs. PBS-treated R6/2 striatum. Data are indicated as the mean±SD of triplicates."}, "(CAG)10 hairpins": {"tested_on": "(CAG)10 hairpins", "details": "cited from earlier work"}, "HD fibroblasts (CAG)43": {"tested_on": "HD fibroblasts (CAG)43", "assay": "small-pool PCR across HD repeat tract, HD primary fibroblasts GM02191", "type": "cell-based, human", "details": "40 days; for % Contraction / % Expansion / % Unchanged / Average repeat size: 50 uM NA", "experimental": "The construction of the HT1080-(CAG)850 cell model was described previously (Sathasivam et al., 1997, Hum. Genet., 99:692-5). Briefly, HT1080 (ATCC) human fibrosarcoma cells were co-transfected with a plasmid (LC15-R) containing 800-850 (CTG)●(CAG) repeats (Nakatani et al., 2005, Nat. Chem. Biol., 1:39-43) and a plasmid encoding PhiC31 integrase. Transfection was performed with a Nucleofector (Lonza, Basel, Switzerland), and stably transfected clones were selected with puromycin. […] The HT1080-non-transcribing (CAG)850 cell model was established by transfecting a plasmid modified from pLC16 by inserting an additional SV40 polyadenylation signal downstream of the repeats (in addition to the original polyadenylation signals located upstream of the repeats), so that CAG/CTG repeats are floxed by transcription-terminator elements. The AttB-PhiC31 system has been widely used for single copy integration. […] The HT1080 model cells and an HD primary fibroblast cell line, GM09197 (Coriell Biorepository) with a large expanded allele of 180 CAG repeats and a non-expanded allele of 23 repeats (Sathasivam et al., 1997, Hum. Genet., 99:[…]), the HD primary fibroblast cell line, GM02191 (Coreill Biorepository) with an expanded allele of 43 CAG repeats and a non-expanded allele of 19 repeats, were cultured at 37° C. with 5% CO2 in Dulbecco's modified Eagle's medium supplemented with 10% fetal bovine serum and 1% penicillin/streptomycin. Cells were treated with or without continuous exposure to 50-μM NA for 30 days (HT1080 cells) or for 40 days (fibroblast cells). For experiments on non-proliferating cells, HT1080 cells were grown to confluence and then treated for the same period. WST-1 assay was performed according to the manufacturer's instructions (Roche, Basel, Switzerland). All cell lines were tested to be free of Mycoplasma. Three biological replicates were performed for each experiment.\nGenomic DNA was extracted from HT1080-(CAG)850 clones and HD primary fibroblasts using the Gentra Puregene Cell Kit (Qiagen, Valencia, Calif.). The expanded (CTG)●(CAG) repeats were sized by small-pool PCR (sp-PCR) followed by Southern blot as described previously (Sathasivam et al., 1997, Hum. Genet., 99:692-5). For HT1080 models, small-pool PCR (spPCR) was performed with the input of 1.4-1.7 genome equivalents. The repeat size difference in the models is, at most, 3000 base-pairs, therefore, being strictly conservative, a bias toward amplifying the shorter allele can be possible, even under optimized PCR conditions described herein. For HD primary fibroblasts, sp-PCR & Southern blots were performed as described previously with slight modifications (Tome et al., 2013, PLoS Genet., 9:e1003280). Briefly, the PCR primers listed in Table 1 were used, and blots were hybridized with a DIG-labeled (CAG)7 locked nucleic acid probe (Nakamori et al. 2009, Neuromuscul. Disord., 19:759-62). At least 50 alleles were analyzed for each of the three experiments (more than 150 alleles for a total study). Repeat analyses are summarized in Table 2, compiled from complete small-pool-PCR datasets for each repetition of each experiment. For the histograms in FIGS. 4D, 4E, 10, 11, 5B, 5D, 5E, 14 and 15B, the Y-axis, “% of repeat population” was calculated by determining the proportion of >50 individual small-pool PCR reactions across the CAG repeat tract, that harbored a certain size of repeat product with a certain length. Cell clones were grown 30 or 40 days with or without NA (see, for example, Sathasivam et al., 1997, Hum. Genet., 99:692-5). Specifically, the histograms of repeat length distributions were from at least two different cell clones. Length distributions were determined as follows: Small-pool PCR followed by Southern blot for analysis of CAG/CTG repeat length."}, "[2]": {"tested_on": "Slip-outs of 3, 5, 11 or 15 CAG repeats", "assay": "band-shift NA binding to slip-outs of 3, 5, 11 or 15 CAG repeats", "details": "NA 15 μM and 50 μM", "experimental": "Slip-outs of 3, 5, 11 or 15 CAG repeats extruded as a single slip-out from a fully base-paired backbone (see top panel, DNAs sequence and structure). One pmol of each substrate was mixed with increasing concentrations of NA (15 μM and 50 μM) and resolved on 4% polyacrylamide gels. All lanes are from the same gel, and they were separated for clarity. NA-DNA complexes are shown by brackets, free DNA is indicated by arrowheads. For the linear substrate, there is no NA binding (white arrowheads); at the higher concentration of NA, a small decrease of the short slip-outs DNAs (3 and 5 repeats) is observed (grey arrowheads), but it is not possible to define a clear shifted band; band-shift is evident for the (CAG)11 and (CAG)15 slip-out DNAs (black arrowheads). The relative mobility shift was measured (graph panel) as the ratio of the migration distance of each NA-DNA complex to the migration distance of the free DNA. The migration distance was measured from the well to a consistent centre point of each band. Histograms indicate the mean of three independent experiments and the corresponding standard deviation. P-values were calculated by Student's t test."}, "[3]": {"tested_on": "plasmid harboring (CAG)79●(CTG)79 repeats, R-loops", "assay": "in vitro transcription, R-loop formation, RNase A/H processing and R-loop stability", "type": "biochemical", "method": "Reaction products were then treated with RNase A (labeled “A”), to cleave all single-stranded RNAs, and resolved on 1% agarose gel. Control treatment with RNaseH (labeled “H”), eliminating RNA:DNA hybrids, was performed to reveal the RNA-free supercoiled DNAs. […] Reaction products then were resolved on 1% agarose gel. […] Double-R-loops were then treated with RNaseA or H (labeled “A” or “H”) and incubated with NA (50 μM). Reaction products were then resolved on 1% agarose gel. […] The position of supercoiled plasmid in dimer or monomer form is indicated by “SC”. The top “SC” represents linked dimers and the bottom “SC” represents monomers. In Panels C, D, and E, NA was either included in the transcription reaction (Panel C), only in the RNAse A/H reaction, only following the RNAse A/H clean-up.\nTranscription reactions were performed as previously described (Reddy et al., 2014, Nuc. Acids Res., 42:10473-87). Briefly, 500 ng of template DNA in 1× transcription buffer (Roche) and 1× bovine serum albumin (NEB) were mixed for 1 h with 20 U of the appropriate RNA polymerase: T7, T3 or T7+T3 (Roche), with or without NA 120 μM. Samples were purified and then treated with either 1 g of RNase A (Roche) alone or with 1 g of RNase A (Roche) and 1 U of E. coli RNase H (Roche), at room temperature for 30 min, in the presence or in the absence of NA (120 μM). All in vitro transcription reaction products were analyzed on 1% agarose gels run in 1×TBE buffer at 80 V for 3 h. Gels were subsequently stained with ethidium bromide (0.5 mg/ml) to allow visualization of total nucleic acid under ultraviolet (UV) light."}, "[4]": {"tested_on": "CAG/CTG R-loops processed by neuron-like human SH-SY5Y cell extracts", "assay": "R-loop processing by SH-SY5Y cell extracts, STRIP assay", "type": "biochemical", "details": "NA 50 μM; p=0.002", "method": "Double-R-loops were then treated with RNaseA or H (labeled “A” or “H”) and incubated with 50 μM of NA. Reaction products were then resolved on 1% agarose gel. […] Pre-formed double-R-loops were processed by terminally differentiated (retinoic acid) human neuron-like cell extracts (SH-SY5Y) in the absence or presence of NA (50 μM), as described and DNA repeat lengths were assessed as expansions, contractions, or stable, by the STRIP assay. […] Transcription products were isolated, processed and transformed in E. coli cells, previously shown to stably maintain the (CAG)79●(CTG)79 lengths. Plasmids isolated from individual bacterial colonies were digested with restriction enzymes to release the repeat containing fragment, resolved on 4% polyacrylamide gels and scored for instability.\nR-loop templates prepared from in vitro transcription and RNase A treatments were incubated with NA and then processed by extracts of HeLa or SH-SY5Y neuroblastoma cells, where the latter were terminally differentiated by retinoic acid, as previously described (Panigrahi et al., 2005, Nat. Struct. & Mol. Biol., 12:654-62). […] Miniprep DNA was analyzed for changes in repeat length by analysis of the repeat-containing fragment on 4% polyacrylamide gels. […]"}, "[5]": {"tested_on": "plasmids pDM79EF, pDM79HF, pKN16 with SV40 origin of replication", "assay": "in vitro SV40 replication assay by HeLa cell extracts", "type": "biochemical, human", "details": "NA 7.5 μM or 15 μM", "method": "Three circular plasmids containing the SV40 origin of replication, and an expanded (CAG)79●(CTG)79 repeat tract (pDM79EF and pDM79HF) or no repeats (pKN16), were replicated in vitro by human HeLa cell extracts and added recombinant SV40 T-Ag, without or with NA (7.5 μM or 15 μM) treatment. […] Replication products were purified and linearized with BanHI. An equal portion of the reaction material was also digested with BamHI and DpnI; DpnI digests un-replicated and partially-replicated material, as shown in the schematic (top figure).\nThese templates containing repeats (pDM79EF and pDM79HF) and another substrate with SV40-ori and no-repeats (pKN16) were replicated in vitro by HeLa cell extract adding [α-^32P]dCTP and T-Antigen, as described in detail in Panigrahi et al. (2002, J. Biol. Chem., 277:13926-34) and Cleary et al. (2002, Nat. Genet., 31(1):37-46). Replication reaction was performed without or with NA (7.5 μM and 15 μM). Radioactive replication products were purified, linearized with BamHI, and treated with DpnI (for details see FIG. 9). […] Equal quantities of reaction products were resolved by electrophoresis on a 15-cm 1% agarose gel. The gel was run for 16 h at 4 V/cm in TBE buffer, dried, and exposed to Kodak film."}, "[6]": {"details": "single experiments Ex 1-3, cut-off ±10 repeats"}},
  "note": "Values joined by “and” are separate entries in the source; they are usually repeats but may differ in a detail not shown here. Equal values may be shown once.",
  "data": [
    {"substance": "naphthyridine-azaquinolone", "values": [
      {"measurement": "effect on transcription across the CAG transgene", "setting": "[1]", "value": "does not affect transcription"},
      {"measurement": "melting temperature of (CAG)10 hairpins with NA", "setting": "(CAG)10 hairpins; 50 μM NA, 47.1 (±0.7)° C. without NA", "value": "78.8 (±0.1) ° C."},
      {"measurement": "increase of the melting temperature of (CAG)10 hairpins", "setting": "(CAG)10 hairpins", "value": "> 30", "unit": "°C"},
      {"measurement": "lowest repeat length reached by contractions", "setting": "HD fibroblasts (CAG)43; 50 μM NA, HD disease threshold 35 units", "value": "≥ 20", "unit": "repeats"},
      {"measurement": "% Contraction", "setting": "HD fibroblasts (CAG)43; Total", "value": 25.3, "unit": "%"},
      {"measurement": "% Expansion", "setting": "HD fibroblasts (CAG)43; Total", "value": 4.9, "unit": "%"},
      {"measurement": "% Unchanged", "setting": "HD fibroblasts (CAG)43; Total", "value": 69.8, "unit": "%"},
      {"measurement": "Average repeat size", "setting": "HD fibroblasts (CAG)43; Total", "value": "40.7 number of repeats"},
      {"measurement": "% Unchanged", "setting": "HD fibroblasts (CAG)43; single experiments Ex 1-3", "value": "67.0% and 69.2% and 73.2%"},
      {"measurement": "Average repeat size", "setting": "HD fibroblasts (CAG)43; single experiments Ex 1-3", "value": "40.6 number of repeats and 40.4 number of repeats and 41.0 number of repeats"},
      {"measurement": "% Contraction", "setting": "HD fibroblasts (CAG)43; [6]", "value": "28.4% and 25.2% and 22.3%"},
      {"measurement": "% Expansion", "setting": "HD fibroblasts (CAG)43; [6]", "value": "4.6% and 5.6% and 4.5%"},
      {"measurement": "NA binding by slip-out length (relative mobility shift)", "setting": "[2]", "value": "significantly better for longer than shorter CAG slip-outs"},
      {"measurement": "effect on biophysical stability of R-loops", "setting": "[3]; NA 50 μM or 500 μM", "value": "did not affect the biophysical stability of R-loops"},
      {"measurement": "effect on R-loop formation", "setting": "[3]; NA 120 μM during transcription", "value": "did not affect R-loop formation"},
      {"measurement": "effect on transcription in vitro", "setting": "[3]; T3 or T7 RNA polymerases", "value": "nor did it affect transcription in vitro"},
      {"measurement": "effect on R-loop processing products (contractions, expansions)", "setting": "[4]", "value": "significantly increasing the number of contraction products but not expansion products"},
      {"measurement": "effect on replication efficiency and replication fork progression", "setting": "[5]", "value": "does not affect replication efficiency or replication fork progression"}
    ]}
  ]
}
